Source: US8003785B2 (Takeda Pharmaceutical Company Limited, priority 2008, dated 2011)

What follows are compounds tested against T1, PLK1 (Homo sapiens, UniProt P53350) (assay: Biochemical Characterization Assay: HTRF kinase assay, GST-PLK1 phosphorylation of GST-p53). Settings: GST-PLK1, GST-p53 substrate.
T1 construct: Full-length, active GST-PLK1 is purified from Sf9 insect cells; made in house; host or cells: Sf9 insect cells
Method in brief: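 HTRF read-out of p53 phosphorylation: after EDTA stop, anti-phospho-p53 antibody bound 30 min at 37 °C in HEPES pH 7 buffer, with Eu-anti-rabbit/APC-anti-GST detection. Kinase step used full-length Sf9-expressed GST-PLK1 (3 ug/mL) and E. coli GST-p53 substrate, 35 min at 37 °C.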

T1 sequence (P53350 whole entry): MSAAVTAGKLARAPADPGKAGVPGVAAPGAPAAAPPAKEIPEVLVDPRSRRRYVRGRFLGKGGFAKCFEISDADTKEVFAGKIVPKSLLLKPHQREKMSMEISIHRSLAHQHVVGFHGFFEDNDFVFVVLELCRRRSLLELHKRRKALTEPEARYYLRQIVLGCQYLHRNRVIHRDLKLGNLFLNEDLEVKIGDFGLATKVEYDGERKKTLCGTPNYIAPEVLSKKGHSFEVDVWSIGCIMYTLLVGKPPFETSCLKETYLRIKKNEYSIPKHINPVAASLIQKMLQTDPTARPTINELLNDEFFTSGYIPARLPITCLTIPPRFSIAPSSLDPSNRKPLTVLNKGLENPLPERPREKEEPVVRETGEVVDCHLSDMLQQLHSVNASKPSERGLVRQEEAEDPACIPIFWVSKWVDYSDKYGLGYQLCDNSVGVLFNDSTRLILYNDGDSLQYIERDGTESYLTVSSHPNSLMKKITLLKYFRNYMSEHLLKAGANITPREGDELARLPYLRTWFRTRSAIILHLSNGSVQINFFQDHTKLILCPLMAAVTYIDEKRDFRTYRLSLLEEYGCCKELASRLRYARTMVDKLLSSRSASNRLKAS

Row | Structure (SMILES) | IC50 [nM]
1 | CNC(=O)c1ccc(Nc2ncc3c(n2)N(CCc2cccs2)CC(F)(F)C(=O)N3C)c(OC)c1 [Example I-272, 4-[7,7-difluoro-5-methyl-6-oxo-9-(2-thiophen-2-yl-ethyl)-6,7,8,9-tetrahydro-5H-pyrimido[4,5-b][1,4]diazepin-2-ylamino]-3-methoxy-N-methyl-benzamide] | 1 to 50
2 | COc1cc(C(=O)NCCCN(C)C)ccc1Nc1ncc2c(n1)N(CCc1cccs1)CC(F)(F)C(=O)N2C [Example I-273, 4-[7,7-difluoro-5-methyl-6-oxo-9-(2-thiophen-2-yl-ethyl)-6,7,8,9-tetrahydro-5H-pyrimido[4,5-b][1,4]diazepin-2-ylamino]-N-(3-dimethylamino-propyl)-3-methoxy-benzamide] | 1 to 50
3 | COc1cc(C(=O)O)ccc1Nc1ncc2c(n1)N(CCc1ccccc1)CC(F)(F)C(=O)N2C [Example I-275, 4-(7,7-difluoro-5-methyl-6-oxo-9-phenethyl-6,7,8,9-tetrahydro-5H-pyrimido[4,5-b][1,4]diazepin-2-ylamino)-3-methoxy-benzoic acid] | 51 to 500
4 | COc1cc(C(N)=O)ccc1Nc1ncc2c(n1)N(CCc1ccccc1)CC(F)(F)C(=O)N2C [Example I-277, 4-(7,7-difluoro-5-methyl-6-oxo-9-phenethyl-6,7,8,9-tetrahydro-5H-pyrimido[4,5-b][1,4]diazepin-2-ylamino)-3-methoxy-benzamide] | 51 to 500
5 | COc1cc(C(=O)NC2CCOCC2)ccc1Nc1ncc2c(n1)N(CCc1ccccc1)CC(F)(F)C(=O)N2C [Example I-280, 4-(7,7-difluoro-5-methyl-6-oxo-9-phenethyl-6,7,8,9-tetrahydro-5H-pyrimido[4,5-b][1,4]diazepin-2-ylamino)-3-methoxy-N-(tetrahydro-pyran-4-yl)-benzamide] | 51 to 500
6 | COc1cc(C(=O)NC2CCN(C)CC2)ccc1Nc1ncc2c(n1)N(CCCc1ccccc1)CC(F)(F)C(=O)N2C [Example I-282, 4-[7,7-difluoro-5-methyl-6-oxo-9-(3-phenyl-propyl)-6,7,8,9-tetrahydro-5H-pyrimido[4,5-b][1,4]diazepin-2-ylamino]-3-methoxy-N-(1-methyl-piperidin-4-yl)-benzamide] | 1 to 50
7 | CNC(=O)c1ccc(Nc2ncc3c(n2)N(CCCc2ccccc2)CC(F)(F)C(=O)N3C)c(OC)c1 [Example I-284, 4-[7,7-difluoro-5-methyl-6-oxo-9-(3-phenyl-propyl)-6,7,8,9-tetrahydro-5H-pyrimido[4,5-b][1,4]diazepin-2-ylamino]-3-methoxy-N-methyl-benzamide] | 51 to 500
8 | COc1cc(C(=O)NCCCN(C)C)ccc1Nc1ncc2c(n1)N(CCCc1ccccc1)CC(F)(F)C(=O)N2C [Example I-285, 4-[7,7-difluoro-5-methyl-6-oxo-9-(3-phenyl-propyl)-6,7,8,9-tetrahydro-5H-pyrimido[4,5-b][1,4]diazepin-2-ylamino]-N-(3-dimethylamino-propyl)-3-methoxy-benzamide] | 1 to 50
9 | COc1cc(C(=O)NC2CCOCC2)ccc1Nc1ncc2c(n1)N(CCCc1ccccc1)CC(F)(F)C(=O)N2C [Example I-286, 4-[7,7-difluoro-5-methyl-6-oxo-9-(3-phenyl-propyl)-6,7,8,9-tetrahydro-5H-pyrimido[4,5-b][1,4]diazepin-2-ylamino]-3-methoxy-N-(tetrahydro-pyran-4-yl)-benzamide] | 51 to 500
10 | COc1cc(C(=O)O)ccc1Nc1ncc2c(n1)N(C(C)C)CC(F)(F)C(=O)N2C [Example I-292, 4-(7,7-difluoro-9-isopropyl-5-methyl-6-oxo-6,7,8,9-tetrahydro-5H-pyrimido[4,5-b][1,4]diazepin-2-ylamino)-3-methoxy-benzoic acid] | 51 to 500
11 | COc1cc(C(=O)NC2CCN(C)CC2)ccc1Nc1ncc2c(n1)N(C(C)C)CC(F)(F)C(=O)N2C [Example I-293, 4-(7,7-difluoro-9-isopropyl-5-methyl-6-oxo-6,7,8,9-tetrahydro-5H-pyrimido[4,5-b][1,4]diazepin-2-ylamino)-3-methoxy-N-(1-methyl-piperidin-4-yl)-benzamide] | 1 to 50
12 | COc1cc(C(N)=O)ccc1Nc1ncc2c(n1)N(C(C)C)CC(F)(F)C(=O)N2C [Example I-294, 4-(7,7-difluoro-9-isopropyl-5-methyl-6-oxo-6,7,8,9-tetrahydro-5H-pyrimido[4,5-b][1,4]diazepin-2-ylamino)-3-methoxy-benzamide] | 1 to 50
13 | CNC(=O)c1ccc(Nc2ncc3c(n2)N(C(C)C)CC(F)(F)C(=O)N3C)c(OC)c1 [Example I-295, 4-(7,7-difluoro-9-isopropyl-5-methyl-6-oxo-6,7,8,9-tetrahydro-5H-pyrimido[4,5-b][1,4]diazepin-2-ylamino)-3-methoxy-N-methyl-benzamide] | 1 to 50
14 | COc1cc(C(=O)NCCCN(C)C)ccc1Nc1ncc2c(n1)N(C(C)C)CC(F)(F)C(=O)N2C [Example I-296, 4-(7,7-difluoro-9-isopropyl-5-methyl-6-oxo-6,7,8,9-tetrahydro-5H-pyrimido[4,5-b][1,4]diazepin-2-ylamino)-N-(3-dimethylamino-propyl)-3-methoxy-benzamide] | 1 to 50
15 | COc1cc(C(=O)NC2CCOCC2)ccc1Nc1ncc2c(n1)N(C(C)C)CC(F)(F)C(=O)N2C [Example I-297, 4-(7,7-difluoro-9-isopropyl-5-methyl-6-oxo-6,7,8,9-tetrahydro-5H-pyrimido[4,5-b][1,4]diazepin-2-ylamino)-3-methoxy-N-(tetrahydro-pyran-4-yl)-benzamide] | 1 to 50
16 | COc1cc(C(=O)NC2CCN(C)CC2)ccc1Nc1ncc2c(n1)N(C1CCCC1)CC(Cl)(Cl)C(=O)N2C [Example I-298, 4-(7,7-dichloro-9-cyclopentyl-5-methyl-6-oxo-6,7,8,9-tetrahydro-5H-pyrimido[4,5-b][1,4]diazepin-2-ylamino)-3-methoxy-N-(1-methyl-piperidin-4-yl)-benzamide] | 1 to 50
17 | COc1cc(C(=O)N[C@H]2CC[C@H](N3CCN(CC4CC4)CC3)CC2)ccc1Nc1ncc2c(n1)N(C1CCCC1)CC(F)(F)C(=O)N2C [Example I-300, 4-(9-cyclopentyl-7,7-difluoro-5-methyl-6-oxo-6,7,8,9-tetrahydro-5H-pyrimido[4,5-b][1,4]diazepin-2-ylamino)-N-[trans-4-(4-cyclopropylmethyl-piperazin-1-yl)-cyclohexyl]-3-methoxy-benzamide] | 1 to 50

Other lines, results leading:

Row | IC50 [nM] | Structure (SMILES)
18 | 51 to 500 | COc1cc(C(N)=O)ccc1Nc1ncc2c(n1)N(CCc1cccs1)CC(F)(F)C(=O)N2C [Example I-271, 4-[7,7-difluoro-5-methyl-6-oxo-9-(2-thiophen-2-yl-ethyl)-6,7,8,9-tetrahydro-5H-pyrimido[4,5-b][1,4]diazepin-2-ylamino]-3-methoxy-benzamide]
19 | 51 to 500 | COc1cc(C(=O)NC2CCOCC2)ccc1Nc1ncc2c(n1)N(CCc1cccs1)CC(F)(F)C(=O)N2C [Example I-274, 4-[7,7-difluoro-5-methyl-6-oxo-9-(2-thiophen-2-yl-ethyl)-6,7,8,9-tetrahydro-5H-pyrimido[4,5-b][1,4]diazepin-2-ylamino]-3-methoxy-N-(tetrahydro-pyran-4-yl)-benzamide]
20 | 1 to 50 | COc1cc(C(=O)NC2CCN(C)CC2)ccc1Nc1ncc2c(n1)N(CCc1ccccc1)CC(F)(F)C(=O)N2C [Example I-276, 4-(7,7-difluoro-5-methyl-6-oxo-9-phenethyl-6,7,8,9-tetrahydro-5!-pyrimido[4,5-b][1,4]diazepin-2-ylamino)-3-methoxy-N-(1-methyl-piperidin-4-yl)-benzamide]
21 | 51 to 500 | CNC(=O)c1ccc(Nc2ncc3c(n2)N(CCc2ccccc2)CC(F)(F)C(=O)N3C)c(OC)c1 [Example I-278, 4-(7,7-difluoro-5-methyl-6-oxo-9-phenethyl-6,7,8,9-tetrahydro-5H-pyrimido[4,5-b][1,4]diazepin-2-ylamino)-3-methoxy-N-methyl-benzamide]
22 | 51 to 500 | COc1cc(C(=O)NCCCN(C)C)ccc1Nc1ncc2c(n1)N(CCc1ccccc1)CC(F)(F)C(=O)N2C [Example I-279, 4-(7,7-difluoro-5-methyl-6-oxo-9-phenethyl-6,7,8,9-tetrahydro-5H-pyrimido[4,5-b][1,4]diazepin-2-ylamino)-N-(3-dimethylamino-propyl)-3-methoxy-benzamide]
23 | 51 to 500 | COc1cc(C(=O)O)ccc1Nc1ncc2c(n1)N(CCCc1ccccc1)CC(F)(F)C(=O)N2C [Example I-281, 4-[7,7-difluoro-5-methyl-6-oxo-9-(3-phenyl-propyl)-6,7,8,9-tetrahydro-5H-pyrimido[4,5-b][1,4]diazepin-2-ylamino]-3-methoxy-benzoic acid]
24 | 51 to 500 | COc1cc(C(N)=O)ccc1Nc1ncc2c(n1)N(CCCc1ccccc1)CC(F)(F)C(=O)N2C [Example I-283, 4-[7,7-difluoro-5-methyl-6-oxo-9-(3-phenyl-propyl)-6,7,8,9-tetrahydro-5H-pyrimido[4,5-b][1,4]diazepin-2-ylamino]-3-methoxy-benzamide]
25 | 51 to 500 | COc1ccc(CN2CC(F)(F)C(=O)N(C)c3cnc(Nc4ccc(C(=O)NC5CCN(C)CC5)cc4OC)nc32)cc1 [Example I-291, 4-[7,7-difluoro-9-(4-methoxy-benzyl)-5-methyl-6-oxo-6,7,8,9-tetrahydro-5H-pyrimido[4,5-b][1,4]diazepin-2-ylamino]-3-methoxy-N-(1-methyl-piperidin-4-yl)-benzamide]
26 | 1 to 50 | COc1cc(C(=O)N[C@H]2CC[C@@H](N3CCN(CC4CC4)CC3)CC2)ccc1Nc1ncc2c(n1)N(C1CCCC1)CC(F)(F)C(=O)N2C [Example I-299, 4-(9-cyclopentyl-7,7-difluoro-5-methyl-6-oxo-6,7,8,9-tetrahydro-5H-pyrimido[4,5-b][1,4]diazepin-2-ylamino)-N-[cis-4-(4-cyclopropylmethyl-piperazin-1-yl)-cyclohexyl]-3-methoxy-benzamide]
